We go through 19 compounds from patent US20240368135A1 (VERTEX PHARMACEUTICALS INCORPORATED, priority 2021, published 2024).

Sequence of human NaV 1.8 (Q9Y5Y9 126-399 limits assumed): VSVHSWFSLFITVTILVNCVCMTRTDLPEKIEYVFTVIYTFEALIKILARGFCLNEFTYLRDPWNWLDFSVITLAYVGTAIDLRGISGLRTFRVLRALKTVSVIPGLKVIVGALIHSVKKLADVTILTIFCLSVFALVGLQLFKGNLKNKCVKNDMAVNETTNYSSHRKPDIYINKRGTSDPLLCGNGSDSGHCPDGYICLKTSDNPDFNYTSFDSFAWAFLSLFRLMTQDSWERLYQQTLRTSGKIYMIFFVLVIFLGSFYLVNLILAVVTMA
Sequence of human NaV 1.8 (Q9Y5Y9 660-890 limits assumed): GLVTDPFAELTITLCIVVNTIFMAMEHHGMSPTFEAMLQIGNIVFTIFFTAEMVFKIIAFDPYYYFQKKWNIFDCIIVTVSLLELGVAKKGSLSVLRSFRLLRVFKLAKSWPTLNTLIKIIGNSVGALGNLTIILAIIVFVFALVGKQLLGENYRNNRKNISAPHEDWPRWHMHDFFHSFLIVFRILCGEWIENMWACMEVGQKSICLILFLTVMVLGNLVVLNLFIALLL
Sequence of human NaV 1.8 (Q9Y5Y9 1148-1722 limits assumed): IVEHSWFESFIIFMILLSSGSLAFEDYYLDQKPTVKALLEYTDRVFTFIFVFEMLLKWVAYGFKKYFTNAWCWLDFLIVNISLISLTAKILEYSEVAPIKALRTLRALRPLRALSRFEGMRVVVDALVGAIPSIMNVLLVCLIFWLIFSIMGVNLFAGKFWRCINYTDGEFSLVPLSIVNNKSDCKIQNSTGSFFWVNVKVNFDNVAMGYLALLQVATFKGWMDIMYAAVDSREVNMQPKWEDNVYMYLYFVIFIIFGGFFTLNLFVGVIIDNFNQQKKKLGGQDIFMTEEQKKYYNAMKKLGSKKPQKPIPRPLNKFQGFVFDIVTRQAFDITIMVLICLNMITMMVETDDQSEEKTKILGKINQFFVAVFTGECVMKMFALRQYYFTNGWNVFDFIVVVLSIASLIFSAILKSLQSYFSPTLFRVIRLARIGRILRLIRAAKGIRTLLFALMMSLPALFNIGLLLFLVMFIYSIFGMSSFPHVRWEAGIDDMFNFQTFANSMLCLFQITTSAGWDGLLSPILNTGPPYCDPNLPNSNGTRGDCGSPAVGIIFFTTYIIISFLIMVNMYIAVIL

For the first test, the target named is human NaV 1.8 (Homo sapiens, UniProt Q9Y5Y9). Briefly: E-VIPR assay detecting and measuring NaV inhibition properties. Type of test: cell-based. The note with it: HEK cells expressing truncated human NaV 1.8; in the presence of human serum (compound numbers followed by *); read-out: IC50 in the E-VIPR Assay, performed in the presence of human serum. An excerpt:
Sodium ion channels are voltage-dependent proteins that can be activated by inducing membrane voltage changes by applying electric fields. The electrical stimulation instrument and methods of use, referred to as E-VIPR, are described in International Publication No. WO 2002/008748 A3 and C.-J. Huang et al. Characterization of voltage-gated sodium channel blockers by electrical stimulation and fluorescence detection of membrane potential, 24 Nature Biotech. 439-46 (2006), both of which are incorporated by reference in their entirety. The instrument comprises a microtiter plate handler, an optical system for exciting the coumarin dye while simultaneously recording the coumarin and oxonol emissions, a waveform generator, a current- or voltage-controlled amplifier, and parallel electrode pairs that are inserted into assay plate wells. Under integrated computer control, this instrument passes user-programmed electrical stimulus protocols to cells within the wells of the microtiter plate.
16-20 hours prior to running the assay on E-VIPR, HEK cells expressing a truncated form of human NaV 1.8 with full channel activity were seeded into microtiter 384-well plates, pre-coated with matrigel, at a density of 25,000 cells per well. 2.5-5% KIR2.1 Bacmam virus was added to the final cell suspension before seeding into cell plates. HEK cells were grown in Dulbecco's Modified Eagle's Medium (DMEM) supplemented with 10% FBS (Fetal Bovine Serum, qualified; Sigma #F4135), 1% NEAA (Non-Essential Amino Acids, Gibco #11140), 1% HEPES (Gibco #15630), 1% Pen-Strep (Penicillin-Streptomycin; Gibco #15140) and 5 μg/ml Blasticidin (Gibco #R210-01). Cells were expanded in vented cap cell culture flasks, with 90-95% humidity and 5% CO2.
Human Serum (HS, Millipore #S1P1-01KL, or Sigma SLBR5469V and SLBR5470V as a 50%/50% mixture, for 25% assay final concentration) • Bath 1 Buffer: • Sodium Chloride 160 mM (9.35 g/L), Potassium Chloride, 4.5 mM (0.335 g/L), Glucose 10 mM (1.8 g/L), Magnesium Chloride (Anhydrous) 1 mM (0.095 g/L), Calcium Chloride 2 mM (0.222 g/L), HEPES 10 mM (2.38 g/L) in water. • Na/TMA C1 Bath 1 Buffer: • Sodium Chloride 96 mM (5.61 g/L), Potassium Chloride 4.5 mM (0.335 g/L), Tetramethylammonium (TMA)-Cl 64 mM (7.01 g/L), Glucose 10 mM (1.8 g/L), Magnesium Chloride (Anhydrous) 1 mM (0.095 g/L), Calcium Chloride 2 mM (0.222 g/L) HEPES 10 mM (2.38 g/L) in water. • Hexyl Dye Solution (2× concentration): • Bath 1 Buffer containing 0.5% P-cyclodextrin (made fresh prior to each use, Sigma #C4767), 8 μM CC2-DMPE and 2 μM DiSBAC6(3). The solution was made by adding 10% Pluronic F127 stock equal to combined volumes of CC2-DMPE and DiSBAC6(3). The order of preparation was first mix Pluronic and CC2-DMPE, then add DiSBAC6(3), then while vortexing add Bath 1/p-Cyclodextrin.
Compound Loading Buffer (2× concentration): Na/TMA C1 Bath1 Buffer containing HS (omitted in experiments run in the absence of human serum (HS)) 50%, VABSC-1 1 mM, BSA 0.2 mg/ml (in Bath-1), KCl 9 mM, DMSO 0.625%.
1) To reach the final concentration in each well, 375 nL of each compound was pre-spotted (in neat DMSO) into polypropylene compound plates at 240× desired final concentration from an intermediate stock concentration of 0.075 mM, in an 11 point dose response, 3-fold dilution, resulting in a top dose of 300 nM final concentration in the cell plate. Vehicle control (neat DMSO), and positive control (an established NaV1.8 inhibitor, 25 μM final in assay in DMSO) were added manually to the outermost columns of each plate respectively. The compound plate was backfilled with 45 μL per well of Compound Loading Buffer resulting in a 240 fold dilution of compound following a 1:1 transfer of compound into the cell plate (see Step 6). Final DMSO concentration for all wells in the assay was 0.625% (0.75% DMSO was supplemented to the Compound Loading Buffer for a final DMSO concentration of 0.625%). […]
The IC50 is the midpoint of a concentration-inhibition curve. For the compound `C[C@@H]1[C@H](c2ccc(F)c(F)c2OC(F)F)[C@@H](C(=O)Nc2cncc(C#N)c2)O[C@]1(C)C(F)(F)F` (single isomer, unassigned) [Compound 69], the IC50 is not below 1000 nM.
As to `COc1c(C2C(C(=O)Nc3ccnc(C(O)C(C)O)c3)OC(C)(C(F)(F)F)C2C)ccc(F)c1C` (single isomer, unassigned) [Compound 149], the IC50 was 100 to 1000 nM.
As to `C[C@@H]1[C@H](c2ccc(F)c(F)c2OC(F)F)[C@@H](C(=O)Nc2cc(S(C)(=O)=O)c[n+]([O-])c2)O[C@]1(C)C(F)(F)F` (single isomer, unassigned) [Compound 87], the IC50 is not below 1000 nM.
Turning to `C[C@@H]1[C@H](c2ccc(F)c(F)c2OC(F)F)[C@@H](C(=O)Nc2ccnc(S(C)(=O)=O)c2)O[C@]1(C)C(F)(F)F` (single isomer, unassigned) [Compound 86], the IC50 is not below 1000 nM.

Staying with this test, now noted: HEK cells expressing truncated human NaV 1.8; no human serum; read-out: IC50 in the E-VIPR Assay.
`COc1c([C@H]2[C@H](C(=O)Nc3ccnc(N4C[C@H](C)N(C)CC4=O)c3)O[C@@](C)(C(F)(F)F)[C@H]2C)ccc(F)c1F` [Compound 474, (2R,3S,4S,5R)-3-(3,4-difluoro-2-methoxyphenyl)-N-(2-((S)-4,5-dimethyl-2-oxopiperazin-1-yl)pyridin-4-yl)-4,5-dimethyl-5-(trifluoromethyl)tetrahydrofuran-2-carboxamide]: the IC50 was less than 10 nM.
Same read-out and setting: as for `COc1c([C@H]2[C@H](C(=O)NC3CCN(C(C)=O)CC3)O[C@@](C)(C(F)(F)F)[C@H]2C)ccc(F)c1F` [Compound 273, (2R,3S,4S,5R)-N-(1-acetylpiperidin-4-yl)-3-(3,4-difluoro-2-methoxyphenyl)-4,5-dimethyl-5-(trifluoromethyl)tetrahydrofuran-2-carboxamide], the figure is not below 1000 nM; as for `C[C@H]1[C@@H](c2ccc(F)c(F)c2OCCO)[C@H](C(=O)Nc2cnn(CC#N)c2)O[C@@]1(C)C(F)(F)F` [Compound 549, (2R,3S,4S,5R)-N-(1-(cyanomethyl)-1H-pyrazol-4-yl)-3-(3,4-difluoro-2-(2-hydroxyethoxy)phenyl)-4,5-dimethyl-5-(trifluoromethyl)tetrahydrofuran-2-carboxamide], 100 to 1000 nM; as for `CN=S(C)(=O)c1cc(NC(=O)C2OC(C)(C(F)(F)F)C(C)C2c2ccc(F)c(F)c2OC)ccn1` (single isomer, unassigned) [Compound 530, 3-(3,4-difluoro-2-methoxy-phenyl)-N-[2-(N,S-dimethylsulfonimidoyl)-4-pyridyl]-4,5-dimethyl-5-(trifluoromethyl)tetrahydrofuran-2-carboxamide], less than 10 nM.
As to `COc1c([C@H]2[C@H](C(=O)Nc3ccc4nc(C(=O)NCCO)cn4c3)O[C@@](C)(C(F)(F)F)[C@H]2C)ccc(F)c1F` [Compound 260, 6-((2R,3S,4S,5R)-3-(3,4-difluoro-2-methoxyphenyl)-4,5-dimethyl-5-(trifluoromethyl)tetrahydrofuran-2-carboxamido)-N-(2-hydroxyethyl)imidazo[1,2-a]pyridine-2-carboxamide], the IC50 lay in the range of 10 to 100 nM.
The same measure, in the same setting: to `COc1c([C@H]2[C@H](C(=O)Nc3cc(C[C@@H](O)CO)n(C)n3)O[C@@](C)(C(F)(F)F)[C@H]2C)ccc(F)c1F` [Compound 335, (2R,3S,4S,5R)-3-(3,4-difluoro-2-methoxy-phenyl)-N-[5-[(2R)-2,3-dihydroxypropyl]-1-methyl-pyrazol-3-yl]-4,5-dimethyl-5-(trifluoromethyl)tetrahydrofuran-2-carboxamide] belongs not below 1000 nM; to `COc1c([C@@H]2[C@@H](C(=O)Nc3ccc(C(=O)O)nc3)O[C@](C)(C(F)(F)F)[C@@H]2C)ccc(F)c1C(F)F` (single isomer, unassigned) [Compound 177], not below 1000 nM; to `COC[C@@H](O)Cc1cc(NC(=O)[C@@H]2O[C@@](C)(C(F)(F)F)[C@@H](C)[C@H]2c2ccc(F)c(F)c2OCCN2CCOCC2)ccn1` [Compound 596, (2R,3S,4S,5R)-3-(3,4-difluoro-2-(2-morpholinoethoxy)phenyl)-N-(2-((S)-2-hydroxy-3-methoxypropyl)pyridin-4-yl)-4,5-dimethyl-5-(trifluoromethyl)tetrahydrofuran-2-carboxamide], 10 to 100 nM.
In the case of `COc1c([C@H]2[C@H](C(=O)Nc3ccc(S(C)(=N)=O)nc3)O[C@@](C)(C(F)(F)F)[C@H]2C)ccc(F)c1F` (single isomer, unassigned) [Compound 336, rel-(2R*,3S*,4S*,5R*)-3-(3,4-difluoro-2-methoxyphenyl)-4,5-dimethyl-N-(6-(S-methylsulfonimidoyl)-pyridin-3-yl)-5-(trifluoromethyl)-tetrahydrofuran-2-carboxamide], the IC50 was less than 10 nM.
Same read-out and setting: as for `COc1c([C@@H]2[C@H](C)[C@H](C(C)C)O[C@H]2C(=O)Nc2cccnc2)ccc(F)c1F` [Compound 720, (2R,3S,4S,5S)-3-(3,4-difluoro-2-methoxyphenyl)-5-isopropyl-4-methyl-N-(pyridin-3-yl)tetrahydrofuran-2-carboxamide], the figure is 100 to 1000 nM; as for `COc1c([C@H]2[C@H](C(=O)Nc3ccnc(C(CO)N(C)C)c3)O[C@@](C)(C(F)(F)F)[C@H]2C)ccc(F)c1F` (single isomer, unassigned) [Compound 230, rel-(2R*,3S*,4S*,5R*)-3-(3,4-difluoro-2-methoxyphenyl)-N-(2-(-1-(dimethylamino)-2-hydroxyethyl)pyridin-4-yl)-4,5-dimethyl-5-(trifluoromethyl)tetrahydrofuran-2-carboxamide], less than 10 nM.
`COc1c([C@H]2[C@H](C(=O)NCC3CCOC3)O[C@@](C)(C(F)(F)F)[C@H]2C)ccc(F)c1F` (stereo partly drawn) [Compound 279, (2R,3S,4S,5R)-3-(3,4-difluoro-2-methoxyphenyl)-4,5-dimethyl-N-((tetrahydrofuran-3-yl)methyl)-5-(trifluoromethyl)tetrahydrofuran-2-carboxamide]: the half-inhibitory concentration (IC50) was not below 1000 nM.
As for `COc1c([C@H]2[C@H](C(=O)Nc3ccnc(C(C)(O)CO)c3)OC(C)(C)[C@H]2C)ccc(F)c1F` (single isomer, unassigned) [Compound 731], the IC50 was 100 to 1000 nM.
Still for that read-out and setting: to `COc1c([C@H]2[C@H](C(=O)Nc3cc(CO)ncn3)O[C@@](C)(C(F)(F)F)[C@H]2C)ccc(F)c1F` [Compound 246, (2R,3S,4S,5R)-3-(3,4-difluoro-2-methoxyphenyl)-N-(6-(hydroxymethyl)pyrimidin-4-yl)-4,5-dimethyl-5-(trifluoromethyl)tetrahydrofuran-2-carboxamide] belongs less than 10 nM; to `C[C@H]1[C@@H](c2ccc(F)c(F)c2OCCO)[C@H](C(=O)Nc2cncs2)O[C@@]1(C)C(F)(F)F` [Compound 555, (2R,3S,4S,5R)-3-(3,4-difluoro-2-(2-hydroxyethoxy)phenyl)-4,5-dimethyl-N-(thiazol-5-yl)-5-(trifluoromethyl)tetrahydrofuran-2-carboxamide], 10 to 100 nM.
